# Test results from PubChem BioAssay (NCI).
#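 Step 1: Grow cells in 96-well plates. Step 2: Expose to compound for 48 hours at 5 concentrations. Step 3: Interpolate endpoints linearly; if unreached, use highest concentration. The concentration for 50% growth inhibition is given as GI50. TGI: total growth inhibition.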
# Experiments:
# Assay in all cases: growth of human tumour cells (NCI), 48 h
# [1] = tested on: IGROV1 ovarian
# [2] = tested on: K-562 leukemia
# [3] = tested on: LOX IMVI melanoma
# [4] = tested on: OVCAR-8 ovarian
# [5] = tested on: RPMI-8226 leukemia
# [6] = tested on: SK-OV-3 ovarian
# [7] = tested on: SN12C renal
# [8] = tested on: SNB-19 CNS
# [9] = tested on: T-47D breast
# [10] = tested on: HOP-92 NSCLC
SMILES,GI50 [1] [µM],TGI [1] [µM],GI50 [2] [µM],TGI [2] [µM],GI50 [3] [µM],TGI [3] [µM],GI50 [4] [µM],TGI [4] [µM],GI50 [5] [µM],TGI [5] [µM],GI50 [6] [µM],TGI [6] [µM],GI50 [7] [µM],TGI [7] [µM],GI50 [8] [µM],TGI [8] [µM],GI50 [9] [µM],TGI [9] [µM],TGI [10] [µM],GI50 [10] [µM]
CC[C@]12C=CCN3CC[C@@]4(c5ccc(OC)cc5N(C)[C@H]4[C@@](O)(C(=O)OC)[C@@H]1OC(=O)CCCN1CCN(CCCC(=O)O[C@@H]4[C@]5(CC)C=CCN6CC[C@@]7(c8ccc(OC)cc8N(C)[C@H]7[C@@]4(O)C(=O)OC)[C@@H]65)CC1)[C@@H]32,0.635,1.99,0.18,0.365,0.399,1.5,1.55,3.36,0.547,2.26,2.07,3.63,1.14,2.55,1.23,2.59,1.6,3.44,–,–
CC(C)(C)C1CC[C@H]2c3c([nH]c4ccccc34)[C@H]3C(=O)N(c4ccc(F)cc4)C(=O)[C@H]3[C@H]2C1 (some centres not stated),–,35.3,–,42.5,–,35.2,–,25.2,–,–,–,32,–,23.6,–,29.8,–,–,48.1,–
O=C(/C=C(\[O-])c1ccccc1)CCCCCCC(=O)/C=C(\[O-])c1ccccc1.O=C(/C=C(\[O-])c1ccccc1)CCCCCCC(=O)/C=C(\[O-])c1ccccc1.O=C(/C=C(\[O-])c1ccccc1)CCCCCCC(=O)/C=C(\[O-])c1ccccc1.[Y+3].[Y+3],> 50,> 50,17.7,> 50,> 50,> 50,37.4,> 50,44.8,> 50,> 50,> 50,47.3,> 50,19,> 50,–,–,> 50,17
COc1ccc2cc3n(c(=O)c2c1)CCc1c-3cc(OC)c(OC)c1OC,–,> 100,–,> 100,–,–,–,> 100,–,> 100,–,> 100,–,> 100,–,> 100,–,–,> 100,–
COC(=O)C1CC(=O)O[C@H]1c1ccc(OC)c(OC)c1 (some centres not stated),–,> 100,–,> 100,–,> 100,–,> 100,–,> 100,–,> 100,–,> 100,–,–,–,–,> 100,–
CCCCC(C(=O)C(=O)Nc1ccccc1CC)C(=O)C(C)C (configuration not stated),–,> 100,–,> 100,–,> 100,–,> 100,–,> 100,–,> 100,–,> 100,–,> 100,–,–,> 100,–
N#Cc1c(CC(=O)O)cc(=O)n2c1[nH]c1ccccc12,–,> 100,–,> 100,–,> 100,–,> 100,–,> 100,–,> 100,–,> 100,–,> 100,–,–,–,–
O=C1c2ccccc2C2(O)N(c3ccccc3)C(=S)N(c3ccccc3)C12O (configuration not stated),–,> 100,–,> 100,–,> 100,–,> 100,–,> 100,–,> 100,–,> 100,–,> 100,–,–,–,–
CN(C)c1ccc(/C=c2/sc3nc(=O)c(-c4ccccc4NC(=O)C(F)(F)F)nn3c2=O)cc1,–,> 100,–,> 100,–,> 100,–,> 100,–,–,–,> 100,–,> 100,–,> 100,–,–,> 100,–
O=c1c2cc(Br)ccc2nc(CNc2ccccc2)n1-c1ccccc1,–,36.8,–,58.1,–,19.6,–,> 57,–,> 54.9,–,> 96.4,–,29,–,> 72.1,–,–,37.8,–
